Laboratory results as given in patent US9499550B2 (BRISTOL-MYERS SQUIBB COMPANY, priority 2012, dated 2016).
Like-named read-outs stand apart in the source and are kept apart here.

Key:
[1] = tested on: HCV genotype 1a (H77 strain) replicon in HUH-7 cells; assay: HCV replicon luciferase reporter assay, genotype 1a; assay type: cell-based; conditions: Hepatitis C virus, Huh-7, 72 h, 3 days incubation, read-out: LE_1a (EC50, range)
Summary of the method: (§1)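 Replicon inhibition for both genotypes was measured as Renilla luciferase signal (EnduRen, 7.5 μM final, 2 h) after 3-day, 37° C exposure of replicon-bearing HUH-7 cells in 4% FCS DMEM, 0.5% DMSO. The 1b construct carries S1179I; the 1a H77 construct carries P1496L and S2204I. Twenty-point, 3-fold dilutions were fitted four-parametrically for EC50, and CC50 was taken from multiplexed Cell Titer-Blue.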

[2] = tested on: HCV genotype 1b (Con1) replicon in HUH-7 cells; assay: HCV replicon luciferase reporter assay, genotype 1b; assay type: cell-based; conditions: Hepatitis C virus, Huh-7, 72 h, 3 days incubation, read-out: LE_1b (EC50, range)
Summary of the method: as §1

[3] = HCV genotype 1a replicon luciferase assay, range class
[4] = HCV genotype 1b replicon luciferase assay, range class
[5] = HCV genotype 1a replicon luciferase
[6] = HCV genotype 1b replicon luciferase
[7] = GETYPE1A, HCV genotype 1a replicon luciferase
[8] = GETYPE1B, HCV genotype 1b replicon luciferase

Structure (SMILES) | EC50 [1, 3] | EC50 [2, 4] | EC50 [1, 5] | EC50 [2, 6] | also measured
CC(C)n1nc(O[C@@H]2C[C@H]3C(=O)N[C@]4(C(=O)NS(=O)(=O)C5CC5)C[C@H]4/C=C\CC[C@@H](C)C[C@@H](C)[C@H](NC(=O)OC(C)(C)C)C(=O)N3C2)c2ccccc2c1=O [Compound 1002, tert-butyl ((2R,6S,7R,9R,13aS,14aR,16aS,Z)-14a-((cyclopropylsulfonyl)carbamoyl)-2-((3-isopropyl-4-oxo-3,4-dihydrophthalazin-1-yl)oxy)-7,9-dimethyl-5,16-dioxo-1,2,3,5,6,7,8,9,10,11,13a,14,14a,15,16,16a-hexadecahydrocyclopropa[e]pyrrolo[1,2-a][1,4]diazacyclopentadecin-6-yl)carbamate] | > 87.4 nM | 4.82 to 103 nM |  |  | 
COc1cc2ccnc(O[C@@H]3C[C@H]4C(=O)N[C@]5(C(=O)NS(=O)(=O)C6(CF)CC6)C[C@H]5/C=C\CC[C@@H](C)C[C@@H](C)[C@H](NC(=O)c5ccc(F)cc5F)C(=O)N4C3)c2cc1F [Compound 4097, (2R,6S,7R,9R,13aS,14aR,16aS,Z)-6-(2,4-difluorobenzamido)-2-(7-fluoro-6-methoxyisoquinolin-1-yloxy)-N-(1-(fluoromethyl)cyclopropylsulfonyl)-7,9-dimethyl-5,16-dioxo-1,2,3,5,6,7,8,9,10,11,13a,14,14a,15,16,16a-hexadecahydrocyclopropa[e]pyrrolo[1,2-a][1,4]diazacyclopentadecine-14a-carboxamide] |  |  | < 5.46 nM | < 5.46 nM | 
CCC1(S(=O)(=O)NC(=O)[C@@]23C[C@H]2/C=C\CC[C@@H](C)C[C@@H](C)[C@H](NC(=O)OC(C)(C)C(F)(F)F)C(=O)N2C[C@H](Oc4nccc5cc(OC)ccc45)C[C@H]2C(=O)N3)CC1 [Compound 4077] |  |  |  |  | EC50 [1, 7]: < 5.46 nM; EC50 [2, 8]: < 5.46 nM
COc1ccc2c(O[C@@H]3C[C@H]4C(=O)N[C@]5(C(=O)NS(=O)(=O)C6CC6)C[C@H]5/C=C\CC[C@@H](C)C[C@@H](C)[C@H](NC(=O)OC(C)(C)C)C(=O)N4C3)nc(N(C)C)cc2c1 [Compound 3121, tert-butyl ((2R,6S,7R,9R,13aS,14aR,16aS,Z)-14a-((cyclopropylsulfonyl)carbamoyl)-2-((3-(dimethylamino)-6-methoxyisoquinolin-1-yl)oxy)-7,9-dimethyl-5,16-dioxo-1,2,3,5,6,7,8,9,10,11,13a,14,14a,15,16,16a-hexadecahydrocyclopropa[e]pyrrolo[1,2-a][1,4]diazacyclopentadecin-6-yl)carbamate] | 4.82 to 103 nM | < 5.46 nM |  |  | 
COc1cc2c(OC)cnc(O[C@@H]3C[C@H]4C(=O)N[C@]5(C(=O)NS(=O)(=O)C6(CF)CC6)C[C@H]5/C=C\CC[C@@H](C)C[C@@H](C)[C@H](NC(=O)OC(C)(C)C(F)(F)F)C(=O)N4C3)c2cc1F [Compound 4160] |  |  |  |  | EC50 [1, 7]: < 5.46 nM; EC50 [2, 8]: < 5.46 nM
CC[C@@H]1C[C@H](C)CC/C=C\[C@@H]2C[C@@]2(C(=O)NS(=O)(=O)C2CC2)NC(=O)[C@@H]2C[C@@H](Oc3nc4cc(OC)ccc4nc3C(C)C)CN2C(=O)[C@H]1NC(=O)OC(C)(C)C [Compound 4272, tert-butyl ((2R,6S,7R,9R,13aS,14aR,16aS,Z)-14a-((cyclopropylsulfonyl)carbamoyl)-7-ethyl-2-((3-isopropyl-7-methoxyquinoxalin-2-yl)oxy)-9-methyl-5,16-dioxo-1,2,3,5,6,7,8,9,10,11,13a,14,14a,15,16,16a-hexadecahydrocyclopropa[e]pyrrolo[1,2-a][1,4]diazacyclopentadecin-6-yl)carbamate] |  |  | 5.01 to 35 nM | 1.01 to 5 nM | 
[2H]C([2H])([2H])Oc1cc2ccnc(O[C@@H]3C[C@H]4C(=O)N[C@]5(C(=O)NS(=O)(=O)C6(C)CC6)C[C@H]5/C=C\CC[C@@H](C)C[C@@H](CC)[C@H](NC(=O)OC(C)(C)C(F)(F)F)C(=O)N4C3)c2cc1F [Compound 5503] |  |  | 1.01 to 5 nM | 0.51 to 1 nM | 
COCCn1nc(O[C@@H]2C[C@H]3C(=O)N[C@]4(C(=O)NS(=O)(=O)C5CC5)C[C@H]4/C=C\CC[C@@H](C)C[C@@H](C)[C@H](NC(=O)OC(C)(C)C(F)(F)F)C(=O)N3C2)c2ccccc2c1=O [Compound 1022, 1,1,1-trifluoro-2-methylpropan-2-yl((2R,6S,7R,9R,13aS,14aR,16aS,Z)-14a-((cyclopropylsulfonyl)carbamoyl)-2-((3-(2-methoxyethyl)-4-oxo-3,4-dihydrophthalazin-1-yl)oxy)-7,9-dimethyl-5,16-dioxo-1,2,3,5,6,7,8,9,10,11,13a,14,14a,15,16,16a-hexadecahydrocyclopropa[e]pyrrolo[1,2-a][1,4]diazacyclopentadecin-6-yl)carbamate] | 4.82 to 103 nM | 4.82 to 103 nM |  |  | 
COc1cc2cc(F)ccc2c(O[C@@H]2C[C@H]3C(=O)N[C@]4(C(=O)NS(=O)(=O)C5(CF)CC5)C[C@H]4/C=C\CC[C@@H](C)C[C@@H](C)[C@H](NC(=O)OC(C)(C)C(C)(F)F)C(=O)N3C2)n1 [Compound 3218, 3,3-difluoro-2-methylbutan-2-yl((2R,6S,7R,9R,13aS,14aR,16aS,Z)-2-((6-fluoro-3-methoxyisoquinolin-1-yl)oxy)-14a-(((1-(fluoromethyl)cyclopropyl)sulfonyl)carbamoyl)-7,9-dimethyl-5,16-dioxo-1,2,3,5,6,7,8,9,10,11,13a,14,14a,15,16,16a-hexadecahydrocyclopropa[e]pyrrolo[1,2-a][1,4]diazacyclopentadecin-6-yl)carbamate] |  |  | 1.01 to 5 nM | 0.1 to 0.5 nM | 
COc1ccc2c(O[C@@H]3C[C@H]4C(=O)N[C@]5(C(=O)NS(=O)(=O)C6(CF)CC6)C[C@H]5/C=C\CC[C@@H](C)C[C@@H](C)[C@H](NC(=O)OC(C)(C)C)C(=O)N4C3)nccc2c1 [Compound 4147, tert-butyl (2R,6S,7R,9R,13aS,14aR,16aS,Z)-14a-(1-(fluoromethyl)cyclopropylsulfonylcarbamoyl)-2-(6-methoxyisoquinolin-1-yloxy)-7,9-dimethyl-5,16-dioxo-1,2,3,5,6,7,8,9,10,11,13a,14,14a,15,16,16a-hexadecahydrocyclopropa[e]pyrrolo[1,2-a][1,4]diazacyclopentadecin-6-ylcarbamate] |  |  | < 5.46 nM | < 5.46 nM | 
COCCn1nc(O[C@@H]2C[C@H]3C(=O)N[C@]4(C(=O)NS(=O)(=O)C5CC5)C[C@H]4/C=C\CC[C@H](C)C[C@@H](C)[C@H](NC(=O)OC(C)(C)C(F)(F)F)C(=O)N3C2)c2ccccc2c1=O [Compound 1021, 1,1,1-trifluoro-2-methylpropan-2-yl((2R,6S,7R,9S,13aS,14aR,16aS,Z)-14a-((cyclopropylsulfonyl)carbamoyl)-2-((3-(2-methoxyethyl)-4-oxo-3,4-dihydrophthalazin-1-yl)oxy)-7,9-dimethyl-5,16-dioxo-1,2,3,5,6,7,8,9,10,11,13a,14,14a,15,16,16a-hexadecahydrocyclopropa[e]pyrrolo[1,2-a][1,4]diazacyclopentadecin-6-yl)carbamate] | > 87.4 nM | > 87.4 nM |  |  | 
COc1ccc2c(O[C@@H]3C[C@H]4C(=O)N[C@]5(C(=O)NS(=O)(=O)C6(C)CC6)C[C@H]5/C=C\CC[C@H](C)C[C@@H](C)[C@H](NC(=O)OC(C)(C)C)C(=O)N4C3)nc(OC)cc2c1 [Compound 1130, tert-butyl ((2R,6S,7R,9S,13aS,14aR,16aS,Z)-2-((3,6-dimethoxyisoquinolin-1-yl)oxy)-7,9-dimethyl-14a-(((1-methylcyclopropyl)sulfonyl)carbamoyl)-5,16-dioxo-1,2,3,5,6,7,8,9,10,11,13a,14,14a,15,16,16a-hexadecahydrocyclopropa[e]pyrrolo[1,2-a][1,4]diazacyclopentadecin-6-yl)carbamate] | < 5.46 nM | < 5.46 nM |  |  | 
COc1cc(F)cc2c(O[C@@H]3C[C@H]4C(=O)N[C@]5(C(=O)NS(=O)(=O)C6CC6)C[C@H]5/C=C\CC[C@H](C)C[C@@H](C)[C@H](NC(=O)OC(C)(C)C(F)(F)F)C(=O)N4C3)nccc12 [Compound 3165, 1,1,1-trifluoro-2-methylpropan-2-yl((2R,6S,7R,9S,13aS,14aR,16aS,Z)-14a-((cyclopropylsulfonyl)carbamoyl)-2-((7-fluoro-5-methoxyisoquinolin-1-yl)oxy)-7,9-dimethyl-5,16-dioxo-1,2,3,5,6,7,8,9,10,11,13a,14,14a,15,16,16a-hexadecahydrocyclopropa[e]pyrrolo[1,2-a][1,4]diazacyclopentadecin-6-yl)carbamate] | 4.82 to 103 nM | 4.82 to 103 nM |  |  | 
COc1ccc2c(O[C@@H]3C[C@H]4C(=O)N[C@]5(C(=O)NS(=O)(=O)C6(C)CC6)C[C@H]5/C=C\CC[C@@H](C)C[C@@H](C)[C@H](NC(=O)NC(C)(C)C)C(=O)N4C3)nc(-c3ccc(OC(C)C)nc3)cc2c1 [Compound 5231, (2R,6S,7R,9R,13aS,14aR,16aS,Z)-6-(3-(tert-butyl)ureido)-2-((3-(6-isopropoxypyridin-3-yl)-6-methoxyisoquinolin-1-yl)oxy)-7,9-dimethyl-N-((1-methylcyclopropyl)sulfonyl)-5,16-dioxo-1,2,3,5,6,7,8,9,10,11,13a,14,14a,15,16,16a-hexadecahydrocyclopropa[e]pyrrolo[1,2-a][1,4]diazacyclopentadecine-14a-carboxamide] |  |  | < 5.46 nM | < 5.46 nM | 
